In paper PMC5908160, “Inhibition of sperm motility in male macaques with EP055, a potential non-hormonal male contraceptive” (PLoS ONE, 2018):

Experiment: Blood constituents and health monitoring in rhesus males after EP055 infusion
Format: in vivo, Macaca mulatta
Design: Hematocrit: unit not given here
Source text: The physical and behavioral condition of animals are monitored daily at ONPRC. Additional monitoring by Division of Comparative Medicine and/or clinical veterinary staff was provided immediately, at 1 hr, 2 hr and 6 hr post-administration of the contraceptive compound, and daily for up to 30 days after the final drug injection. Criteria used to assess animal health and welfare include: stool and urine quality and quantity, appetite and attitude (bright and alert, quiet, lethargic), pain (not eating, not moving, hunched over, lethargy/disinterest), vomiting, diarrhea, nausea, dehydration (unkempt coat, lack of urine production), and signs of wounds of injury. In addition, the ONPRC Standardized Pain Scoring system is used post-surgically to monitor an animal’s progress and improvement over time. Major criteria include animal appearance, posture, activity (including stool and urine production), vocalization and atypical behaviors.
Prior to infusion of EP055, each male was sedated with ketamine by the surgical staff at ONPRC and transported to the operating room. After positioning in dorsal recumbency, the male was intubated and placed under inhalant (isoflurane) anesthesia. Bilateral intravenous catheters were placed in cephalic veins, one for infusion and one for back-up. A percutaneous arterial line was placed in the right femoral artery for direct blood pressure measurement. Invasive blood pressure, heart rate, SpO2, and respirations were monitored by the surgical staff throughout the procedure. Initially, the low doses of EP055 in 5% DMSO-PBS 7.6 was infused by i.v. at 75-80 mg/kg, using a Medfusion 3500 pump (Smiths Medical, St. Paul, MN), and was started at a low flow rate ([…]). In 3 of 4 males, a 5-10% increase in blood pressure and heart rate were noted within the first 2-3 minutes of infusion of EP055. In these cases, the infusion was temporarily suspended until these parameters subsequently declined to normal. The infusion rate was then doubled to 1.2 ml/kg/min after 5-10 minutes and the final volume of EP055 infusate was administered. Blood pressure and heart rate remained normal throughout the rest of the infusion interval. The total volume of EP055 infusate ranged from 72 ml – 136 ml, depending upon the weight of the animal, and the duration of infusion was 10-13 minutes. Following completion of the infusion, all animals recovered normally. Animals were monitored by clinical veterinary staff immediately, at 1 hr, 2 hr and 6-8 hr post-infusion, and daily for up to 30 days after the final infusion of EP055. […] Two weeks after the infusion of the low dose and collection of the next set of baseline semen samples, males were infused with the high dose of EP055 (125-130 mg/kg) as described above, and monitored similarly.
Blood was collected from the brachial vein at the time of each semen collection, and used to determine complete blood counts and serum biochemistry tests (including electrolytes, glucose, lipids, proteins, enzymes and metabolic by-products) as performed in the Clinical Pathology Laboratory in the Division of Comparative Medicine at ONPRC.

[1] = post high dose 125–130 mg/kg, 6-8 hrs
[2] = post high dose 125–130 mg/kg, 28-30 hrs
[3] = post high dose 125–130 mg/kg, 78 hr
[4] = post low dose 75–80 mg/kg, 6-8 hrs
[5] = post low dose 75–80 mg/kg, 28-30 hrs
[6] = post low dose 75–80 mg/kg, 78 hrs
[7] = post low dose 75–80 mg/kg, Recovery

## COC(=O)NNc1nc(Nc2ccc(NC(C)=O)c(O)c2)nc(SCC(=O)O)n1 [EP055]
3 of 4 males, first 2-3 minutes of low dose infusion (75-80 mg/kg)
  increase in blood pressure and heart rate: 5-10%
After low or high dose
  blood constituents versus baseline levels: no clinically significant difference
During and after drug administration
  side effects, monitoring of blood and organ function: no indications of any side effects or health warning signs
During treatment
  ALT (alanine aminotransferase) and glucose levels: rose during treatment
High dose 125-130 mg/kg
  adverse effects: no adverse effects were observed
High dose, 6 hrs
  neutrophil numbers versus reference range (2.4–9.6 x 10^3/mm^3): slightly above the high end of the reference range
In vivo
  long-term effects on animals: no long- term effects
Low dose 75-80 mg/kg, monitored up to 30 days
  adverse effects: No adverse effects were observed
[1]
  ALT: 49.7 ± 3.6 U/l
  AST: 68.3 ± 6.8 U/l
  Albumin: 4.7 ± 0.1 g/dL
  Alkaline Phosphatase: 94.0 ± 4.8 U/l
  BUN: 18.8 ± 2.3 mg/dL
  Basophils: 0.5 ± 0.1%
  CREAT: 1.0 ± 0.1 mg/dL
  Chloride: 108.7 ± 0.3 mEq/l
  Cholesterol: 146.3 ± 18.1 mg/dL
  Eosinophils: 0.9 ± 0.1%
  Erythrocytes: 6.1 ± 0.2 x 10^6/mm^3
  GGT: 71.0 ± 1.0 U/l
  GLUC: 101.3 ± 10.2 mg/dL
  Hematocrit: 45.2 ± 1.0
  Hemoglobin: 14.7 ± 0.4 g/dL
  Leukocytes: 12.3 ± 1.8 x 10^3/mm^3
  Lymphocytes: 21.6 ± 9.9%
  MCH: 24.2 ± 0.4 pg/cell
  MCHC: 32.5 ± 0.1 g/dL
  MCV: 74.5 ± 1.1 fl/cell
  Magnesium: 2.2 ± 0.1 mg/dL
  Monocytes: 5.2 ± 0.4%
  Neutrophils: 10.3 ± 1.4 x 10^3/mm^3
  Phosphorus: 5.2 ± 0.4 mg/dL
  Platelets: 298.3 ± 39.0 x 10^6
  Potassium: 4.0 ± 0.1 mEq/l
  Sodium: 147.7 ± 0.6 mEq/l
  Total Bilirubin: 0.2 ± 0.1 mg/dL
  Total Protein: 7.6 ± 0.2 g/dL
  Triglycerides: 84.3 ± 19.8 mg/dL
[2]
  ALT: 74.0 ± 10.8 U/l
  AST: 83.3 ± 14.3 U/l
  Albumin: 4.7 ± 0.1 g/dL
  Alkaline Phosphatase: 95.7 ± 3.6 U/l
  BUN: 15.3 ± 2.4 mg/dL
  Basophils: 0.5 ± 0.1%
  CREAT: 1.0 ± 0.0 mg/dL
  Chloride: 108.7 ± 0.6 mEq/l
  Cholesterol: 147.3 ± 23.4 mg/dL
  Eosinophils: 1.4 ± 0.1%
  Erythrocytes: 6.1 ± 0.2 x 10^6/mm^3
  GGT: 71.3 ± 3.4 U/l
  GLUC: 92.0 ± 9.7 mg/dL
  Hematocrit: 45.9 ± 0.9
  Hemoglobin: 15.0 ± 0.4 g/dL
  Leukocytes: 7.7 ± 1.4 x 10^3/mm^3
  Lymphocytes: 32.4 ± 4.3%
  MCH: 24.4 ± 0.3 pg/cell
  MCHC: 32.7 ± 0.2 g/dL
  MCV: 74.8 ± 1.0 fl/cell
  Magnesium: 1.9 ± 0.0 mg/dL
  Monocytes: 5.5 ± 0.6%
  Neutrophils: 5.1 ±0.8 x 10^3/mm^3
  Phosphorus: 3.2 ± 0.6 mg/dL
  Platelets: 301.7 ± 36.5 x 10^6
  Potassium: 4.0 ± 0.1 mEq/l
  Sodium: 149.0 ± 0.0 mEq/l
  Total Bilirubin: 0.2 ± 0.1 mg/dL
  Total Protein: 7.8 ± 0.2 g/dL
  Triglycerides: 59.3 ± 18.5 mg/dL
[3]
  ALT: 53.0 ± 7.3 U/l
  AST: 30.0 ± 3.1 U/l
  Albumin: 4.8 ± 0.1 g/dL
  Alkaline Phosphatase: 101.5 ± 8.7 U/l
  BUN: 18.3 ± 2.2 mg/dL
  Basophils: 0.5 ± 2.3%
  CREAT: 1.0 ± 0.0 mg/dL
  Chloride: 108.5 ± 0.9 mEq/l
  Cholesterol: 152.0 ± 19.4 mg/dL
  Eosinophils: 1.4 ± 4.5%
  Erythrocytes: 5.8 ± 4.5 x 10^6/mm^3
  GGT: 69.3 ± 3.8 U/l
  GLUC: 85.0 ± 8.7 mg/dL
  Hematocrit: 43.3 ± 4.5
  Hemoglobin: 14.1 ± 2.3 g/dL
  Leukocytes: 9.7 ± 2.3 x 10^3/mm^3
  Lymphocytes: 34.6 ± 4.5%
  MCH: 24.3 ± 4.5 pg/cell
  MCV: 74.9 ± 2.3 fl/cell
  Magnesium: 1.9 ± 0.1 mg/dL
  Monocytes: 5.6 ± 2.3%
  Neutrophils: 5.4 ± 1.1 x 10^3/mm^3
  Phosphorus: 4.2 ± 0.8 mg/dL
  Platelets: 292.8 ± 48.1 x 10^6
  Potassium: 4.4 ± 0.2 mEq/l
  Sodium: 149.5 ± 1.2 mEq/l
  Total Bilirubin: 0.1 ± 0.0 mg/dL
  Total Protein: 7.8 ± 0.1 g/dL
  Triglycerides: 68.0 ± 10.6 mg/dL
[4]
  ALT: 44.8 ± 2.0- U/l
  AST: 49.8 ± 3.1 U/l
  Albumin: 4.7 ± 0.0 g/dL
  Alkaline Phosphatase: 129.8 ± 19.2 U/l
  BUN: 17.2 ± 1.9 mg/dL
  Basophils: 0.6 ± 0.1%
  CREAT: 1.0 ± 0.0 mg/dL
  Chloride: 109.3 ± 1.5 mEq/l
  Cholesterol: 154.5 ± 19.0 mg/dL
  Eosinophils: 1.2 ± 0.3%
  Erythrocytes: 5.9 ± 0.2 x 10^6/mm^3
  GGT: 70.5 ± 2.1- U/l
  GLUC: 89.0 ± 6.7 mg/dL
  Hematocrit: 44.3 ± 1.0
  Hemoglobin: 14.4 ± 0.3 g/dL
  Leukocytes: 12.8 ± 2.7 x 10^3/mm^3
  Lymphocytes: 18.8 ± 1.9%
  MCH: 24.5 ± 0.3 pg/cell
  MCHC: 32.6 ± 0.1 g/dL
  MCV: 75.1 ± 1.2 fl/cell
  Magnesium: 1.8 ± 0.0 mg/dL
  Monocytes: 4.9 ± 0.1%
  Neutrophils: 9.5 ± 2.0 x 10^3/mm^3
  Phosphorus: 5.3 ± 0.3 mg/dL
  Platelets: 268.5 ± 38.7 x 10^6
  Potassium: 3.9 ± 0.2 mEq/l
  Sodium: 149.0 ± 0.9 mEq/l
  Total Bilirubin: 0.2 ± 0.1 mg/dL
  Total Protein: 7.5 ± 0.0 g/dL
  Triglycerides: 63.8 ± 5.7 mg/dL
[5]
  ALT: 54.3 ± 3.8 U/l
  AST: 51.0 ± 6.6 U/l
  Albumin: 4.8 ± 0.1 g/dL
  Alkaline Phosphatase: 128.5 ± 12.5 U/l
  BUN: 15.0 ± 1.5 mg/dL
  Basophils: 0.6 ± 0.1%
  CREAT: 1.0 ± 0.0 mg/dL
  Chloride: 110.3 ± 0.9 mEq/l
  Cholesterol: 149.5 ± 19.5 mg/dL
  Eosinophils: 1.4 ± 0.1%
  Erythrocytes: 5.9 ± 0.3 x 10^6/mm^3
  GGT: 72.5 ± 3.9 U/l
  GLUC: 90.0 ± 10.3 mg/dL
  Hematocrit: 43.9 ± 1.9
  Hemoglobin: 14.4 ± 0.7 g/dL
  Leukocytes: 11.8 ± 3.1 x 10^3/mm^3
  Lymphocytes: 31.1 ± 4.8%
  MCH: 24.4 ± 0.2 pg/cell
  MCHC: 32.7 ± 0.3 g/dL
  MCV: 74.7 ± 1.0 fl/cell
  Magnesium: 1.7 ± 0.1 mg/dL
  Monocytes: 5.7 ± 0.3%
  Neutrophils: 7.2 ± 2.0 x 10^3/mm^3
  Phosphorus: 4.0 ± 0.5 mg/dL
  Platelets: 185.8 ± 35.8 x 10^6
  Potassium: 4.2 ± 0.2 mEq/l
  Sodium: 149.0 ± 1.1 mEq/l
  Total Bilirubin: 0.2 ± 0.0 mg/dL
  Total Protein: 7.7 ± 0.2 g/dL
  Triglycerides: 75.3 ± 28.9 mg/dL
[6]
  ALT: 60.3 ± 12.2 U/l
  AST: 73.8 ± 33.6 U/l
  Albumin: 4.7 ± 0.1 g/dL
  Alkaline Phosphatase: 125.3 ± 16.3 U/l
  BUN: 18.8 ± 3.2 mg/dL
  Basophils: 0.6 ± 0.1%
  CREAT: 1.0 ± 0.0 mg/dL
  Chloride: 108.0 ± 0.8 mEq/l
  Cholesterol: 144.0 ± 17.0 mg/dL
  Eosinophils: 2.0 ± 0.5%
  Erythrocytes: 5.5 ± 0.2 x 10^6/mm^3
  GGT: 65.3 ± 2.7 U/l
  GLUC: 91.5 ± 7.4 mg/dL
  Hematocrit: 40.6 ± 0.8
  Hemoglobin: 13.3 ± 0.3 g/dL
  Leukocytes: 11.2 ± 3.3 x 10^3/mm^3
  Lymphocytes: 33.7 ± 5.0%
  MCH: 24.5 ± 0.3 pg/cell
  MCHC: 32.8 ± 0.1 g/dL
  MCV: 74.6 ± 1.2 fl/cell
  Magnesium: 1.8 ± 0.0 mg/dL
  Monocytes: 5.5 ± 0.5%
  Neutrophils: 6.6 ± 2.2 x 10^3/mm^3
  Phosphorus: 4.1 ± 0.6 mg/dL
  Platelets: 270.8 ± 25.8 x 10^6
  Potassium: 4.0 ± 0.1 mEq/l
  Sodium: 147.0 ± 1.2 mEq/l
  Total Bilirubin: 0.2 ± 0.0 mg/dL
  Total Protein: 7.6 ± 0.1 g/dL
  Triglycerides: 57.3 ± 14.1 mg/dL
[7]
  ALT: 31.7 ± 2.3 U/l
  AST: 42.3 ± 2.6 U/l
  Albumin: 4.3 ± 0.1 g/dL
  Alkaline Phosphatase: 79.0 ± 2.3 U/l
  BUN: 16.5 ± 1.9 mg/dL
  Basophils: 0.5 ± 0.1%
  CREAT: 0.8 ± 0.0 mg/dL
  Chloride: 107.0 ± 0.0 mEq/l
  Cholesterol: 138.7 ± 19.3 mg/dL
  Eosinophils: 1.4 ± 0.3%
  Erythrocytes: 5.7 ± 0.2- x 10^6/mm^3
  GGT: 62.3 ± 1.8 U/l
  GLUC: 58.3 ± 4.5 mg/dL
  Hematocrit: 42.4 ± 1.1
  Hemoglobin: 13.8 ± 0.4 g/dL
  Leukocytes: 5.9 ± 1.0 x 10^3/mm^3
  Lymphocytes: 44.8 ± 5.4%
  MCH: 24.1 ± 0.4 pg/cell
  MCHC: 32.5 ± 0.2 g/dL
  MCV: 74.1 ± 0.9 fl/cell
  Magnesium: 1.9 ± 0.1 mg/dL
  Monocytes: 6.4 ± 0.2%
  Neutrophils: 4.5 ± 1.7 x 10^3/mm^3
  Phosphorus: 5.1 ± 0.2 mg/dL
  Platelets: 295.7 ± 11.8 x 10^6
  Potassium: 4.0 ± 0.1 mEq/l
  Sodium: 146.7 ± 0.3 mEq/l
  Total Bilirubin: 0.2 ± 0.0 mg/dL
  Total Protein: 7.1 ± 0.1 g/dL
  Triglycerides: 38.0 ± 6.9 mg/dL
